{"source": "ChEMBL document CHEMBL1250518", "about": "“Nonsteroidal dissociated glucocorticoid agonists containing azaindoles as steroid A-ring mimetics” (J Med Chem, 2010)", "molecular_target": "T1, Progesterone receptor (Homo sapiens, UniProt P06401)", "T1 sequence (P06401 whole entry)": "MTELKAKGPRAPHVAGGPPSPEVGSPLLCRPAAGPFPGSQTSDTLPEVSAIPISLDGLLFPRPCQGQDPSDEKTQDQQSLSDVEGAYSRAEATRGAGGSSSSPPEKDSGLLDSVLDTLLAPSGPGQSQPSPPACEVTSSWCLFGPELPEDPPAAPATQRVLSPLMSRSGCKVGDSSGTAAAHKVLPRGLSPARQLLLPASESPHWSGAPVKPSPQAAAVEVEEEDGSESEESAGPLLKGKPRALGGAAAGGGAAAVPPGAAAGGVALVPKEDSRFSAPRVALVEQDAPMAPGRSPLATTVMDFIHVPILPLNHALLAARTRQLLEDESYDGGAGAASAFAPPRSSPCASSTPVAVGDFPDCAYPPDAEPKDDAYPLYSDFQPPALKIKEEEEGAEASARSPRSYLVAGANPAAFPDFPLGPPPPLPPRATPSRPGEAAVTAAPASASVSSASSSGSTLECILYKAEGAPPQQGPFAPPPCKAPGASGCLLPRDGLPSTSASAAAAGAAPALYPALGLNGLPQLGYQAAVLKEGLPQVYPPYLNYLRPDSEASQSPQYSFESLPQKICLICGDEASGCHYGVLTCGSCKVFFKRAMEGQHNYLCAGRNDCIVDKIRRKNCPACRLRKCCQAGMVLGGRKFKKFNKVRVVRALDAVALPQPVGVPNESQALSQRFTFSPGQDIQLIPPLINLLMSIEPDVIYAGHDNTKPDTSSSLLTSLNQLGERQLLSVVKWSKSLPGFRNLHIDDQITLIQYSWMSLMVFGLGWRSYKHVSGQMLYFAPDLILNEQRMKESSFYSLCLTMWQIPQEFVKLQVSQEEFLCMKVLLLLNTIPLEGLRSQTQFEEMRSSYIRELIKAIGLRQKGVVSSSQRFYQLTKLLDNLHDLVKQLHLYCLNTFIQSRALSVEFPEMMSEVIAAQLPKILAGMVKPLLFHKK", "assay": "Binding affinity to progesterone receptor expressed in baculovirus-infected insect cells using tetramethylrhodamine labeled RU-486 by fluorescence polarization microplate assay"}
{"compound": "CC(C)(C[C@@](O)(Cc1cc2ccncc2[nH]1)C(F)(F)F)c1cc(F)ccc1O", "values": [{"measurement": "IC50", "result": 1200, "unit": "nM"}]}
